We go through 24 molecules from ChEMBL document CHEMBL1153514, “Fundamental relationships between structure, reactivity, and biological activity for the duocarmycins and CC-1065” (J Med Chem, 2009).

The subject of one series is L1210. Description: Cytotoxicity against mouse L1210 cells. The class given is functional, cell-based.
The nature of series [1]: Stability assessed as half life at pH 3. Particulars: buffer. The class given is physicochemical.
A short description of series [2]: Stability assessed as half life at pH 7. The format is physicochemical. To be noted: buffer.
A short description of series [3]: Stability assessed as half life at pH 2. The format is physicochemical. Particulars: buffer.

Molecules are shown by their SMILES.

As to `COC(=O)c1cc2c([nH]1)[C@@]13C[C@@H]1CN(C(=O)OC(C)(C)C)C3=CC2=O`, it took 33 nM to reach half-maximal inhibition in the series on L1210 (IC50).

For `COc1cc2cc(CN3C[C@H]4C[C@@]45C3=CC(=O)c3ccccc35)[nH]c2c(OC)c1OC`, the t1/2 in series [1] is 1291.7 days. Moreover, the IC50 – broadly, the concentration that inhibits the measured activity by half – in the series with L1210 is 1400 nM.

On to `CCS(=O)(=O)N1C[C@H]2C[C@@]23C1=CC(=O)c1ccccc13`, for which the half-life – broadly, the time needed for the level to fall by half in the phase considered – in series [1] turned out to be 6.38 h.

Turning to `CC(C)(C)OC(=O)N1CCC[C@H]2C[C@@]23C1=CC(=O)c1ccccc13`, the half-life is 2.1 h in series [2] and 0.03 h in series [1]. In the series with L1210, the IC50 was determined as 5000 nM.

As to `COC(=O)C1=NC2=C(OCc3ccccc3)C=C3N(C(=O)c4cc5cc(OC)c(OC)c(OC)c5[nH]4)C[C@H]4C[C@@]34C2=C1`, the half-life in series [2] stood at 0.717 h; in series [1] it was 0.417 h. In the series on L1210, this molecule returned an IC50 of 5 nM.

Take `COc1ccc2c(c1)[C@@]13C[C@@H]1CN(C(=O)OC(C)(C)C)C3=CC2=O`: the half-life in series [1] is 1.83 h.

Take `CC(C)(C)OC(=O)N1C[C@H]2C[C@@]23C1=CC(=O)c1ccc(C#N)cc13`: the half-life in series [1] came to 3.55 h.

Turning to `COC(=O)c1ccc(N2C[C@H]3C[C@@]34C2=CC(=O)c2ccccc24)cc1`, in series [3], the half-life is 138 h. In addition, 330 nM corresponded to half-maximal inhibition with L1210 (IC50).

For the molecule `CC(C)(C)OC(=O)N1CC[C@H]2C[C@@]23C1=CC(=O)c1ccccc13`, in series [2], the half-life was 544 h.

Turning to `COC(=O)c1cccc2c1C(=O)C=C1N(C(=O)OC(C)(C)C)C[C@H]3C[C@]123`, the half-life in series [1] worked out at 3.93 h. This molecule also registered an IC50 in the series on L1210 of 70 nM.

As for `CCC(=O)N1C[C@H]2C[C@@]23C1=CC(=O)c1ccccc13`, in series [1], the half-life came to 1.6 h.

For the molecule `CC(C)(C)OC(=O)N1C[C@H]2C[C@@]23C1=CC(=O)c1ccccc13`, the Stability result in series [2] is recorded as “Stable”.

Take `COc1ccc(N2C[C@H]3C[C@@]34C2=CC(=O)c2ccccc24)cc1`: the half-life in series [3] is 198 h. Also, in the series with L1210, the IC50 stood at 3200 nM.

Consider `COC(=O)N1C[C@H]2C[C@@]23C1=CC(=O)c1ccccc13`, for which the half-life in series [1] was 0.95 h.

Regarding `Cc1cc2c(s1)[C@@]13C[C@@H]1CN(C(=O)OC(C)(C)C)C3=CC2=O`, the half-life in series [1] was 209 h. Besides, the IC50 in the series with L1210 was determined as 25 nM.

Turning to `CNC(=O)N1C[C@H]2C[C@@]23C1=CC(=O)c1ccccc13`, the half-life in series [1] came out at 0.6 h.

For `COC(=O)c1cc2c([nH]1)C(=O)C=C1N(C(=O)OC(C)(C)C)C[C@H]3C[C@]123`, in series [2], the Stability result was “Stable”.

With `COC(=O)c1cc2c([nH]1)[C@@]13C[C@@H]1CN(C(=O)c1cc4cc(OC)c(OC)c(OC)c4[nH]1)C3=CC2=O`, the IC50 in the series on L1210 is 0.05 nM.

Regarding `Cc1csc2c1[C@@]13C[C@@H]1CN(C(=O)OC(C)(C)C)C3=CC2=O`, in series [1], the half-life was 206 h. Besides, in the series with L1210, the midpoint of inhibition, the IC50, lay at 30 nM.

On to `O=C1C=C2N(c3ccccc3)C[C@H]3C[C@@]23c2ccccc21`, for which the half-life in series [3] was 171 h. The same molecule had an IC50 in the series on L1210 of 1100 nM.

For the molecule `COc1cc2cc(C(=O)N3C[C@H]4C[C@@]45C3=CC(=O)c3ccccc35)[nH]c2c(OC)c1OC`, the half-life in series [1] was 133 h. For the same molecule, the IC50 in the series on L1210 was 0.02 nM.

Consider `O=C1C=C2CC[C@H]3C[C@@]23c2ccccc21`, for which the half-life in series [2] is 4 h; in series [1], 1.3 h.

With `O=C1C=C2NC[C@H]3C[C@@]23c2ccccc21`, the Stability entry in series [2] is recorded as “Stable”. The half-life in series [1] is 4200 h.

For the molecule `COC(=O)c1cc2c([nH]1)C(=O)C=C1N(C(=O)c3cc4cc(OC)c(OC)c(OC)c4[nH]3)C[C@H]3C[C@]123` [DUOCARMYCIN], the Stability entry in series [2] is on record as “Stable”. Moreover, the half-life in series [1] is 177 h.
